Assays:
Type in all cases: cell-based
PANC-1 cells = test: Cell viability assay (MTT); conditions: Homo sapiens, 72 h
Protocol: (§1) 3000 cells were seeded at 96-well plates and cultured overnight for cell adhesion, and treated with DMSO or various concentrations of deltarasin for 72 h. At the end of the incubation, 10 μl of MTT (5 mg/mL, Sigma) were added into each well for 4 h at 37° C., then the crystals were dissolved in 100 μl of the resolved solution (10% SDS and 0.1 mM HCL). The absorbance at 570 nm was measured using a microplate reader (Tecan, Morrisville, N.C., USA). The cell viability was calculated relative to untreated controls. At least 3 independent experiments were performed and the data were plotted as curve graph.

H358 cells [1] = test: Cell viability assay (MTT); conditions: Homo sapiens, NCI-H358, 72 h
Protocol: as §1

LC3-II = test: Western blot of LC3-I to LC3-II conversion (autophagy); conditions: 24 h; for accumulation of LC3-II under deltarasin: A549 cells
Protocol: (§2) Cells were washed twice with cold PBS and then lysed in RIPA lysis buffer containing protease and phosphatase inhibitors. Protein concentration of the cell lysate was measured by using the Bio-Rad protein assay kit (Bio-Rad, Philadelphia, Pa., USA). After equalizing the protein concentrations of the samples, 5×laemmli buffer was added and boiled at 100° C. for 5 min. Equal amounts of protein (20-40 μg per lane) were separated with a 10% SDS-PAGE gel, then the separated proteins were transferred to a nitrocellulose (NC) membrane, which was then exposed to 5% non-fat dry milk in TBS contains 0.1% Tween 20 (0.1% TBST) for 1 h at room temperature with constant agitation, followed by overnight incubation at 4° C. with primary anti-bodies. After washing 3 times with TBST, the membranes were incubated with secondary rabbit or mouse fluorescent antibodies, then the signal intensity of the membranes was detected by anLI-COR Odessy scanner (Belfast, Me., USA). All primary antibodies were diluted in 1:1000, while their recommended secondary antibodies were diluted in 1:10000.

A549 cells [2] = test: Colony formation assay; conditions: 10 days
Protocol: Detailed procedures of colony formation assay were described previously (Franken, N. A., et al., Nature protocols, 2006, 1(5):2315-2319). A549 cells were seeded in a six-well plate at a density of 500 cells per well. The cells were exposed to various concentrations of deltarasin. After 10-14 days, the colonies were fixed with 4% paraformaldehyde and stained with 0.5% (0.5% w/v) crystal violet solutions, the number of colonies were counted under a dissecting microscope.

[3] = test system: AMPK-mTOR signaling pathway; test: Western blot of AMPK-mTOR pathway in A549 cells; conditions: 0-5 μM, 24 h
Protocol: as §2

A549 cells [4] = test: Cell apoptosis assay, Annexin V/PI flow cytometry; conditions: 24 h
Protocol: (§3) Apoptosis was measured using the Annexin V-FITC apoptosis detection kit (BD Biosciences, San Jose, Calif., USA), according to the manufacturer protocol. Briefly, A549, H358 and PANC-1 cells (1.0×10^5 cells/well) were allowed to attach in a six-well plate for 24 h, cells were treated with deltarasin for 24 h. Subsequently, cells were trypsinized, washed with PBS and stained with 100 μL binding buffer containing 2 μl Annexin-V FITC (2.5 μg/ml) and 5 μl propidium iodide (PI) (50 μg/ml) incubated in the dark at room temperature for 15 min, before further addition of 400 μl of 1×Annexin-binding buffer. The stained cells were analyzed quantitatively using a BD Aria III Flow Cytometer (BD Biosciences, San Jose, Calif., USA). Data were analyzed by Flow Jo software.

H358 cells [5] = test: Cell apoptosis assay, Annexin V/PI flow cytometry; conditions: 24 h, deltarasin 5 μM, 3-MA 5 mM where co-treated
Protocol: as §3

[6] = test system: c-Raf, Akt and ERK phosphorylation; test: Western blot of KRAS downstream signalling; conditions: PANC-1, A549 and H358 cells, 24 h, 0-5 μM
Protocol: as §2

A549 cells [7] = test: Cell viability assay (MTT)
Protocol: as §1, with “3000 cells were seeded at 96-well plates and cultured overnight for cell adhesion, and treated with DMSO or various concentrations of deltarasin for 72 h.” left out

intracellular ROS = test: Detection of ROS production by DCF-DA flow cytometry; conditions: PANC-1, A549 and H358 cells, 24 h
Protocol: Intracellular ROS generation was measured by DCF-DA fluorescence probe using flow cytometry. Briefly, A549, H358 and PANC-1 cells (1×10^5 cells/well) were seeded in a six-well plate, and different concentrations of deltarasin were added into the wells. After treatment with deltarasin for 24 h, the treated cells were detached with trypsin, and washed twice with PBS and incubated with 10 μM DCF-DA for 30 min at 37° C. in the dark, the fluorescence-stained cells were then analyzed using a FACS BD Aria III flow cytometer.

GTP-RAS = test: RAS activation assay (Raf1 RBD pull-down) in A549 cells; conditions: 5 μM, 24 h
Protocol: A549 cells were treated with deltarasin for 24 h at 5 μM. Cells were lysed in lysis buffer, adjusted the volume of each sample to 1 ml with 1×Assay Lysis Buffer. Then 40 μl of the Raf1 RBD Agarose bead slurry was swiftly added to each samples. The samples were incubated at 4° C. for 1 h with gentle agitation. The beads were washed 3 times with cold lysis buffer, and bounded protein was resuspended in 40 μl of 2×reducing SDS-PAGE sample buffer and heated at 100° C. for 5 min. The level of […] was detected after SDS-PAGE followed by Western blot.

PARP, Bcl-2 and Bax = test: Western blot of apoptosis-related proteins in A549 cells; conditions: 24 h
Protocol: as §2

KRAS = test: Immunofluorescence of KRAS cellular localization in A549 cells; conditions: 5 μM, 24 h
Protocol: Cells were plated on 6-well plates and grown overnight, then treated with 5 μM deltarasin or 5 mM 3-MA for 24 h. Cells were fixed with 4% paraformaldehyde for 20 min at 4° C., followed by permeabilized with 0.2% Triton X-100 in PBS for 10 min. Subsequently, the cells were blocked with 2% BSA/PBS for 30 min at room temperature, then incubated with KRAS antibody (1:100) overnight at 4° C., followed by the secondary antibody (1:500) for 1 h at room temperature. The nuclear was stained with 1 μg/ml Hoechst staining for 10 min in the dark. The cells were visualized using fluorescent microscopy.

A549 cells [8] = test: GFP-LC3 puncta formation in transfected A549 cells; conditions: 24 h
Protocol: GFP-LC3 expression vector was utilized to monitor and quantify the induction of autophagy following the 3rd autophagy guidelines. A549 cells were seeded at a density of 2×10^5 cells/well in 6-well plates, according to the manufacturers instructions. Lipofectamine™ 2000 was incubated with GFP-LC3 in Opti-MEM reduced serum medium for 20 min at room temperature. The mixture was added drop by drop to the cells and then incubated for 4-6 h. The DNA/Lipofectamine™ 2000 medium was replaced by fresh medium and cultured for another 24 h. […] The percentage of autophagic cells was calculated by counting the number of the cells showing increased punctuate pattern of LC3 fluorescence (≧10 dots/cell) in immunofluorescence positive cells over the total number of cells in the same field. A minimum of 300 cells from randomly selected fields were scored.

c1ccc(Cn2c(-c3ccc(OC[C@H](C4CCNCC4)n4c(-c5ccccc5)nc5ccccc54)cc3)nc3ccccc32)cc1 [deltarasin]
IC50 (PANC-1 cells): 3.86 ± 0.96 µM | IC50 (H358 cells [1]): 4.21 ± 0.72 µM | conversion of LC3-I to LC3-II (LC3-II; PANC-1, A549 and H358 cells, 0-5 μM, dose-dependent): distinctly facilitated | colony formation capacity (A549 cells [2]; 0-5 μM): significantly inhibits | colonies formed (A549 cells [2]; 5 μM): no visible colonies | mTOR and p70S6K phosphorylation [3]: suppressed | p-AMPK level [3]: up-regulation | induction of apoptosis vs untreated cells (A549 cells [4]; 5 μM): significantly induced apoptosis | cell apoptosis (A549 cells [4]; deltarasin 5 μM, 3-MA 5 mM where co-treated): 11.25% | cell apoptosis (H358 cells [5]): 15.99% | c-Raf, Akt and ERK phosphorylation [6]: inhibited | IC50 (A549 cells [7]; Homo sapiens, 72 h, MTT): 5.29 ± 0.7 µM | intracellular ROS levels (intracellular ROS; 5 μM): significantly elevated | binding of GTP to c-Raf-1 binding domain (KRAS-GTP level) (GTP-RAS): significantly inhibited | cleavage of PARP (PARP, Bcl-2 and Bax; 5 μM): induction of the cleavage of PARP | expression of anti-apoptotic protein Bcl-2 (PARP, Bcl-2 and Bax): reduction | expression of pro-apoptotic protein Bax (PARP, Bcl-2 and Bax): increase | KRAS cellular localization (KRAS): reduced the amount of KRAS protein at the plasma membrane and displaced KRAS into the cytoplasm | GFP-LC3 puncta formation (A549 cells [8]; 5 μM, vs untreated control): increased percentage

Cn1cnc(N)c2ncnc1-2 [3-MA, 3-methyladenine]
accumulation of LC3-II induced by deltarasin (LC3-II; PANC-1, A549 and H358 cells, 5 μM deltarasin plus 5 mM 3-MA): suppressed | number of GFP-LC3 puncta under deltarasin (A549 cells [8]; 5 μM deltarasin plus 5 mM 3-MA): significantly diminished

c1cc(-c2cnn3cc(-c4ccc(OCCN5CCCCC5)cc4)cnc23)ccn1 [compound C]
accumulation of LC3-II under deltarasin (LC3-II; 5 μM deltarasin plus 5 μM Compound C): suppressed

CC(=O)N[C@@H](CS)C(=O)O [NAC, N-acetyl cysteine]
accumulation of LC3-II under deltarasin (LC3-II; 5 μM deltarasin plus 5 μM NAC): suppressed | deltarasin-induced apoptosis (A549 cells [4]; 5 μM deltarasin plus 5 μM NAC): decreases | deltarasin-induced cell cytotoxicity (A549 cells [7]; 5 μM deltarasin plus 5 μM NAC, 24 h): decreases | high level of ROS induced by deltarasin (intracellular ROS; 5 μM deltarasin plus 5 μM NAC): suppressed | PARP cleavage under deltarasin (PARP, Bcl-2 and Bax; 5 μM deltarasin plus 5 μM NAC): suppressed

Reference: US9861623B1, “Combination treatment of RAS-positive diseases with PDE-δ inhibitor and direct autophagy inhibitor” (Macau University of Science and Technology, priority 2016, dated 2018)
